Source: patent US12077503B2, “Substituted cyclic amides and their use as herbicides” (FMC CORPORATION, priority 2015, dated 2024)

What was measured:
Assay type in all cases: in vivo
Kochia (Kochia scoparia) [1] = test: Test A preemergence
Summary of the method: (§1)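 Each rating is a visual injury score from 0 to 100 given about 10 d after treatment, judged against untreated controls kept alongside in the greenhouse. In loam soil–sand blend, seeds got a preemergence directed soil spray, while postemergence plants were 2 to 10 cm tall at spraying.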

[2] = tested on: barnyardgrass (Echinochloa crus-galli); test: Test A preemergence
Summary of the method: as §1

[3] = tested on: giant foxtail (Setaria faberii); test: Test A preemergence
Summary of the method: as §1

[4] = tested on: pigweed (Amaranthus retroflexus); test: Test A preemergence
[5] = tested on: ragweed (common ragweed, Ambrosia elatior); test: Test A preemergence
Summary of the method: as §1

[6] = tested on: ryegrass, Italian (Italian ryegrass, Lolium multiflorum); test: Test A preemergence
Summary of the method: as §1

[7] = tested on: Galium (catchweed bedstraw, Galium aparine); test: Test A postemergence; details: postemergence, 0 to 100 scale (0 no effect, 100 complete control)
Summary of the method: as §1

Kochia (Kochia scoparia) [8] = test: Test A postemergence; details: postemergence, 0 to 100 scale (0 no effect, 100 complete control)
Summary of the method: as §1

[9] = tested on: barnyardgrass (Echinochloa crus-galli); test: Test A postemergence
Summary of the method: as §1

[10] = tested on: blackgrass (Alopecurus myosuroides); test: Test A postemergence
Summary of the method: as §1

corn (Zea mays) = test: Test A postemergence
Summary of the method: as §1

[11] = tested on: giant foxtail (Setaria faberii); test: Test A postemergence; details: postemergence, 0 to 100 scale (0 no effect, 100 complete control)
Summary of the method: as §1

[12] = tested on: pigweed (Amaranthus retroflexus); test: Test A postemergence; details: postemergence, 0 to 100 scale (0 no effect, 100 complete control)
Summary of the method: as §1

[13] = tested on: ragweed (common ragweed, Ambrosia elatior); test: Test A postemergence; details: postemergence, 0 to 100 scale (0 no effect, 100 complete control)
Summary of the method: as §1

[14] = tested on: ryegrass, Italian (Italian ryegrass, Lolium multiflorum); test: Test A postemergence; details: postemergence, 0 to 100 scale (0 no effect, 100 complete control)
Summary of the method: as §1

[15] = tested on: wheat (Triticum aestivum); test: Test A postemergence; details: postemergence, 0 to 100 scale (0 no effect, 100 complete control)
Summary of the method: as §1

[16] = tested on: barnyardgrass (Echinochloa crus-galli); test: Test B flooded paddy test; details: Flood, 250 g ai/ha; 0 to 100 scale where 0 is no effect and 100 is complete control; 13 to 15 d
Summary of the method: (§2)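 Visual ratings (0 none to 100 complete control) are relative to untreated plants, taken 13–15 d after treatment in a greenhouse. Test material went straight into floodwater standing 3 cm above the soil, kept constant, on plants at the 2-leaf stage.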

[17] = tested on: ducksalad (Heteranthera limosa); test: Test B flooded paddy test; details: Flood, 250 g ai/ha; 0 to 100 scale where 0 is no effect and 100 is complete control; 13 to 15 d
Summary of the method: as §2

rice (Oryra sativa) = test: Test B flooded paddy test; details: Flood, 250 g ai/ha; 0 to 100 scale where 0 is no effect and 100 is complete control; 13 to 15 d
Summary of the method: as §2

[18] = tested on: sedge, umbrella (small-flower umbrella sedge, Cyperus difformis); test: Test B flooded paddy test; details: Flood, 250 g ai/ha; 0 to 100 scale where 0 is no effect and 100 is complete control; 13 to 15 d
Summary of the method: as §2

[19] = tested on: pigweed (Amaranthus retroflexus); test: Test C preemergence; details: for Plant response rating (scale of 0 to 100), Pigweed: 31 g ai/ha, 0 is no effect, 100 is complete control; for Plant response rating, Pigweed: scale 0 to 100, 0 no effect, 100 complete control
Summary of the method: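 Greenhouse test: seeds in a loam and sand blend treated preemergence, or seedlings at the 1- to 4-leaf stage (2 to 18 cm) in a peat, vermiculite and limestone mix treated postemergence, with test chemicals in a surfactant-containing non-phytotoxic solvent. Scored by eye at 13 to 15 d relative to controls, 0 (no effect) to 100 (complete control).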

[20] = 125 g ai/ha, Preemergence, visual injury after approximately 10 d, 0 to 100 scale where 0 is no effect and 100 is complete control
[21] = 500 g ai/ha, preemergence, 0 to 100 scale, 0 = no effect, 100 = complete control
[22] = 125 g ai/ha, visual rating after approx. 10 d
[23] = 500 g ai/ha, visual injury, approx. 10 d
[24] = 125 g ai/ha, postemergence, visual rating after approx. 10 d, 0 to 100 scale (0 no effect, 100 complete control)
[25] = Postemergence, 500 g ai/ha, 0 to 100 scale where 0 is no effect and 100 is complete control
[26] = 500 g ai/ha, postemergence, visual injury, 0 to 100 scale (0 no effect, 100 complete control), approx. 10 d

| SMILES | Plant response rating, Kochia (Kochia (Kochia scoparia) [1]; [20]) | Plant response rating, Kochia (Kochia (Kochia scoparia) [1]; [21]) | Plant response rating, Barnyardgrass [2, 20] | Plant response rating, Barnyardgrass [2, 21] | Plant response rating, Foxtail, Giant [3, 20] | Plant response rating, Foxtail, Giant [3, 21] | Plant response rating, Pigweed [4, 20] | Plant response rating, Pigweed [4, 21] | Plant response rating, Ragweed [5, 20] | Plant response rating, Ragweed [5, 21] | Plant response rating, Ryegrass, Italian [6, 20] | Plant response rating, Ryegrass, Italian [6, 21] | Plant response rating, Galium [7, 22] | Plant response rating, Galium [7, 23] | Plant response rating, Kochia (Kochia (Kochia scoparia) [8]; [22]) | Plant response rating, Kochia (Kochia (Kochia scoparia) [8]; [23]) | Plant response rating, Barnyardgrass [9, 24] | Plant response rating, Blackgrass [10, 24] | Plant response rating, Corn (corn (Zea mays); [24]) | Plant response rating, Foxtail, Giant [11, 22] | further results |
| --- | --- | --- | --- | --- | --- | --- | --- | --- | --- | --- | --- | --- | --- | --- | --- | --- | --- | --- | --- | --- | --- |
| CN1CC(c2cccc(C(F)(F)F)c2)C(C(=O)Nc2cccc(F)c2F)C1=O (stereo not shown) [Compound 636] | 50 | 70 | 90 | 90 | 90 | 90 | 40 | 80 | 20 | 70 | 90 | 90 | 50 | 50 | 50 | 60 | 90 | 60 | 70 | 90 | Plant response rating, Barnyardgrass [9, 25]: 90; Plant response rating, Blackgrass [10, 25]: 60; Plant response rating, Corn (corn (Zea mays); [25]): 80; Plant response rating, Foxtail, Giant [11, 23]: 90; Plant response rating, Pigweed [12, 22]: 30; Plant response rating, Pigweed [12, 23]: 50; Plant response rating, Ragweed [13, 22]: 0; Plant response rating, Ragweed [13, 23]: 30; Plant response rating, Ryegrass, Italian [14, 22]: 50; Plant response rating, Ryegrass, Italian [14, 23]: 70; Plant response rating, Wheat [15, 22]: 60; Plant response rating, Wheat [15, 23]: 60; Plant response rating, Barnyardgrass [16]: 70; Plant response rating, Ducksalad [17]: 100; Plant response rating, Rice (rice (Oryra sativa)): 0; Plant response rating, Sedge, Umbrella [18]: 0; Plant response rating (scale of 0 to 100), Pigweed [19]: 60; Plant response rating, Pigweed ([19]; 62 g ai/ha): 70; Plant response rating, Pigweed ([19]; 125 g ai/ha): 80; Plant response rating, Pigweed ([19]; 250 g ai/ha): 85 |
| CN1CC(c2cccc(C(F)(F)F)c2)C(C(=O)Nc2ccccc2S(C)(=O)=O)C1=O (stereo not shown) [Compound 637] | 40 | 60 | 90 | 90 | 90 | 100 | 80 | 100 | 40 | 70 | 50 | 90 | 50 | 50 | 0 | 30 | 90 | 50 | 70 | 90 | Plant response rating, Barnyardgrass [9, 25]: 90; Plant response rating, Blackgrass [10, 25]: 60; Plant response rating, Corn (corn (Zea mays); [25]): 70; Plant response rating, Foxtail, Giant [11, 23]: 90; Plant response rating, Pigweed [12, 22]: 50; Plant response rating, Pigweed [12, 23]: 60; Plant response rating, Ragweed [13, 22]: 0; Plant response rating, Ragweed [13, 23]: 20; Plant response rating, Ryegrass, Italian [14, 22]: 20; Plant response rating, Ryegrass, Italian [14, 23]: 20; Plant response rating, Wheat [15, 22]: 70; Plant response rating, Wheat [15, 23]: 70; Plant response rating, Barnyardgrass [16]: 80; Plant response rating, Ducksalad [17]: 100; Plant response rating, Rice (rice (Oryra sativa)): 10; Plant response rating, Sedge, Umbrella [18]: 0; Plant response rating (scale of 0 to 100), Pigweed [19]: 70; Plant response rating, Pigweed ([19]; 62 g ai/ha): 80; Plant response rating, Pigweed ([19]; 125 g ai/ha): 85; Plant response rating, Pigweed ([19]; 250 g ai/ha): 85 |
| Cc1ccc(C2CN(C)C(=O)C2C(=O)Nc2cccc(F)c2F)cc1 (stereo not shown) [Compound 662] | 70 | 90 | 90 | 90 | 100 | 100 | 70 | 80 | 80 | 80 | 40 | 90 | 60 | 70 | 70 | 70 | 90 | 60 | 80 | 90 | Plant response rating, Barnyardgrass [9, 26]: 90; Plant response rating, Blackgrass [10, 26]: 80; Plant response rating, Corn (corn (Zea mays); [26]): 90; Plant response rating, Foxtail, Giant [11, 23]: 90; Plant response rating, Pigweed [12, 22]: 20; Plant response rating, Pigweed [12, 23]: 50; Plant response rating, Ragweed [13, 22]: 20; Plant response rating, Ragweed [13, 23]: 60; Plant response rating, Ryegrass, Italian [14, 22]: 40; Plant response rating, Ryegrass, Italian [14, 23]: 70; Plant response rating, Wheat [15, 22]: 80; Plant response rating, Wheat [15, 23]: 80; Plant response rating, Barnyardgrass [16]: 80; Plant response rating, Ducksalad [17]: 95; Plant response rating, Rice (rice (Oryra sativa)): 20; Plant response rating, Sedge, Umbrella [18]: 0; Plant response rating (scale of 0 to 100), Pigweed [19]: 70; Plant response rating, Pigweed ([19]; 62 g ai/ha): 60; Plant response rating, Pigweed ([19]; 125 g ai/ha): 75; Plant response rating, Pigweed ([19]; 250 g ai/ha): 80 |
| Cc1cccc(C2CN(C)C(=O)C2C(=O)Nc2cccc(F)c2F)c1 (stereo not shown) [Compound 667] | 40 | 70 | 90 | 90 | 90 | 100 | 20 | 50 | 60 | 70 | 80 | 90 | 50 | 50 | 50 | 60 | 90 | 60 | 70 | 90 | Plant response rating, Barnyardgrass [9, 26]: 90; Plant response rating, Blackgrass [10, 26]: 70; Plant response rating, Corn (corn (Zea mays); [26]): 80; Plant response rating, Foxtail, Giant [11, 23]: 90; Plant response rating, Pigweed [12, 22]: 0; Plant response rating, Pigweed [12, 23]: 0; Plant response rating, Ragweed [13, 22]: 0; Plant response rating, Ragweed [13, 23]: 50; Plant response rating, Ryegrass, Italian [14, 22]: 60; Plant response rating, Ryegrass, Italian [14, 23]: 80; Plant response rating, Wheat [15, 22]: 40; Plant response rating, Wheat [15, 23]: 70; Plant response rating, Barnyardgrass [16]: 75; Plant response rating, Ducksalad [17]: 90; Plant response rating, Rice (rice (Oryra sativa)): 10; Plant response rating, Sedge, Umbrella [18]: 0; Plant response rating (scale of 0 to 100), Pigweed [19]: 40; Plant response rating, Pigweed ([19]; 62 g ai/ha): 50; Plant response rating, Pigweed ([19]; 125 g ai/ha): 50; Plant response rating, Pigweed ([19]; 250 g ai/ha): 70 |
